Assay results reported in paper PMC8168342 (Chemical biology & drug design, 2021).

Molecular target: T1, androgen receptor (AR) (Homo sapiens, UniProt P10275)
T1 sequence (P10275 1-920): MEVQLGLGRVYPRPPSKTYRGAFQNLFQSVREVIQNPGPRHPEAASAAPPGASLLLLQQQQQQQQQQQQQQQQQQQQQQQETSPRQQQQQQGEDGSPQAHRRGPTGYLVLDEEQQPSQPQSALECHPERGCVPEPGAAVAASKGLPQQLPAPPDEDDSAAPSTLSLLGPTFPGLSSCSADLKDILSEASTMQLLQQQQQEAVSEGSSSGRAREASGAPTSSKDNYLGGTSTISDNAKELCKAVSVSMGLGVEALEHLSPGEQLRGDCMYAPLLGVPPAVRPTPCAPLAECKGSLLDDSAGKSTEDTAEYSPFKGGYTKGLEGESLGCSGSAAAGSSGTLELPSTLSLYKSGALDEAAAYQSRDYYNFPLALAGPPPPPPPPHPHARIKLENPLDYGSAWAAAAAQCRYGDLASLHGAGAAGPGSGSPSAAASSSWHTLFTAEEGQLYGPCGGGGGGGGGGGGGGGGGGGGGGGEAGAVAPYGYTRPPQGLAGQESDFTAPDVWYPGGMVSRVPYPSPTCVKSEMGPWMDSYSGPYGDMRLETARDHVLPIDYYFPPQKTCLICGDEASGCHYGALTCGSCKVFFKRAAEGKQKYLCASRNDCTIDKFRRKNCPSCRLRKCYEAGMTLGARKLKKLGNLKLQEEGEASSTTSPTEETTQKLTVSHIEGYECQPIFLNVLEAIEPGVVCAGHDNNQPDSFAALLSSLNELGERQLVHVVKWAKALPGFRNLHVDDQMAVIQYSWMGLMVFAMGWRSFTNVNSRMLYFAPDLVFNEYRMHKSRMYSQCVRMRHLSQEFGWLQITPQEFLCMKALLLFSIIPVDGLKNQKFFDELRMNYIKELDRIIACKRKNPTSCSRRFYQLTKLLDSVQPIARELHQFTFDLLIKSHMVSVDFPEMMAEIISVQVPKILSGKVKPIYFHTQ
Test: ARE luciferase reporter assay in MDA-kb2 cells, antagonism of […] DHT
Assay type: cell-based

SMILES | % inhibition at 1 μM
CC1(C)C(=O)N(c2ccc(C#N)c(C(F)(F)F)c2)C(=S)N1c1ccc(CCCCCCO)nc1 [10b, 4-(3-(6-(6-Hydroxyhexyl)pyridin-3-yl)-4,4-dimethyl-5-oxo-2-thioxoimidazolidin-1-yl)-2-(trifluoromethyl) benzonitrile] | 60
CC1(C)C(=O)N(c2ccc(C#N)c(C(F)(F)F)c2)C(=S)N1c1ccc(CCCCCCN=[N+]=[N-])nc1 [11b, 4-(3-(6-(6-Azidohexyl)pyridin-3-yl)-4,4-dimethyl-5-oxo-2-thioxoimidazolidin-1-yl)-2-(trifluoromethyl) benzonitrile] | 60
